In patent US11884627B2, “Compounds and compositions for treating conditions associated with LPA receptor activity” (Lhotse Bio, Inc., priority 2022, dated 2024):
pIC50: −log10 of the molar value. Like-named read-outs stand apart in the source and are kept apart here.

Target: T1, human LPA1 (Homo sapiens, UniProt Q92633)
T1 construct: expressed in transfected cells; host or cells: CHO-K1
Assay: In vitro LPA1 calcium flux antagonist assay - Bioduro protocol
Type: cell-based
Conditions: CHO-K1 cells overexpressing human LPA1 and G15a, LPA challenge at EC80
Procedure: In Vitro LPA1 Calcium Flux Antagonist Assay—Bioduro Protocol
CHO-K1 cells overexpressing human LPA1 and G15a were seeded at a total volume of 20 μL (15000 cells/well) into Matrigel pre-coated 384-well plates (corning −3764) and incubated at 37° C. After overnight incubation, the cells were serum starved for 4 h. Assays were performed in dye loading buffer containing 1× Fluo-8 AM (AAT Bioquest, 21080) and 2.5 mM probenecid (Thermo Fisher, 36400) in HBSS/20 mM Hepes. After cell starvation, the medium was replaced with 20 μL of dye loading buffer and incubated at 37° C., for 30 min. Then 5 μL of 5× compound titrated in dye loading buffer was added to the cells and incubated for 30 min followed by LPA challenge at EC80. Calcium mobilization was measured on a FLIPR Tetra (MSD). For LPA EC80 determination, starved cells were incubated with 20 μL of dye loading buffer for 1 h, then 5 μL of 5×LPA titrated in dye loading buffer was added to the cells. Calcium signals induced by LPA was monitors on a FLIPR.
Percentage inhibition is calculated using the following formula: % Inhibition=100%×(1−(mean RFU of test sample−mean RFU of DMSO)/(mean RFU of LPA control−mean RFU of DMSO)).
Table B3 and Table B4 show the biological activity of compounds in in vitro LPA1 Calcium flux antagonist assay—Bioduro protocol.

[1] = calcium mobilization on FLIPR Tetra, read-out: IC50
[2] = Table B3, read-out: Activity (IC50 class)

T1 sequence (Q92633 whole entry): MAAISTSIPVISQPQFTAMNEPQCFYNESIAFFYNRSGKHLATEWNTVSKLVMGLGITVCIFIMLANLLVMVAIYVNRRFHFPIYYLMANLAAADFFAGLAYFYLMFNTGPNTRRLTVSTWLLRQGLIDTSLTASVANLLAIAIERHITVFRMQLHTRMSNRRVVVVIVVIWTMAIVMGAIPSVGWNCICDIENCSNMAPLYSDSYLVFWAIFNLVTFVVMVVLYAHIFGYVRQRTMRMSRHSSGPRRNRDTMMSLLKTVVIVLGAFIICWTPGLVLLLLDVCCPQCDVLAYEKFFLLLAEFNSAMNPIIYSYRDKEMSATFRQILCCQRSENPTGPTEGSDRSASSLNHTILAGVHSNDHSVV

SMILES	pIC50 [1]	pIC50 [2]
COc1cc(-c2ccc(NC3(C(=O)O)CCOCC3)cc2COC2Cc3ccccc3C2)cc(OC)c1C(C)O (centres unmarked) [Compound 135]	7.56	> 7.00
COc1cc(-c2ccc(NC3(C(=O)O)CCNCC3)cc2COC2Cc3ccccc3C2)cc(OC)c1C [Compound 136]	6.05	< 6.00
CCOC1CC(Nc2ccc(-c3cc(OC)c(C)c(OC)c3)c(COC3Cc4ccccc4C3)c2)(C(=O)O)C1 (centres unmarked) [Compound 137]	7.34	> 7.00
COc1cc(-c2ccc(NC3(C(=O)O)CCN(C)CC3)cc2COC2CCCC2)cc(OC)c1C [Compound 138]	6.76	6.00 to 7.00
COc1cc(-c2ccc(NC3(C(=O)O)CCN(C(C)=O)CC3)cc2COC2CCCC2)cc(OC)c1C [Compound 139]	6.45	6.00 to 7.00
COC(=O)N1CCC(Nc2ccc(-c3cc(OC)c(C)c(OC)c3)c(COC3CCCC3)c2)(C(=O)O)CC1 [Compound 140, 4-((2-((cyclopentyloxy)methyl)-3′,5′-dimethoxy-4′-methyl-[1,1′-biphenyl]-4-yl)amino)-1-(methoxycarbonyl)piperidine-4-carboxylic acid]	7.54	> 7.00
COc1cc(-c2c(C)cc(NC3(C(=O)O)CCOCC3)cc2COC2CCCC2)cc(OC)c1C [Compound 141, 4-((2-((cyclopentyloxy)methyl)-3′,5′-dimethoxy-4′,6-dimethyl-[1,1′-biphenyl]-4-yl)amino) tetrahydro-2H-pyran-4-carboxylic acid]	7.61	> 7.00
COc1cc(-c2ccc(NC3(C(=O)O)CCNCC3)cc2COC2CCCC2)cc(OC)c1C [Compound 142]	< 5.00	< 6.00
COCC1CC(Nc2ccc(-c3cc(OC)c(C)c(OC)c3)c(COC3Cc4ccccc4C3)c2)(C(=O)O)C1 (centres unmarked) [Compound 143]	7.27	> 7.00
COC(=O)N1CC(Nc2ccc(-c3cc(OC)c(C)c(OC)c3)c(COC3CCCC3)c2)(C(=O)O)C1 [Compound 144]	7.23	> 7.00
COc1cc(-c2ccc(NC3(C(=O)O)CCOCC3)cc2COC2CCCC2)ccc1C [Compound 145]	6.31	6.00 to 7.00
COc1cc(OC)cc(-c2ccc(NC3(C(=O)O)CCOCC3)cc2COC2CCCC2)c1 [Compound 146]	7.11	> 7.00
COc1cc(-c2c(F)cc(NC3(C(=O)O)CCOCC3)cc2COC2CCCC2)cc(OC)c1C [Compound 147, 4-((2-((cyclopentyloxy)methyl)-6-fluoro-3′,5′-dimethoxy-4′-methyl-[1,1′-biphenyl]-4-yl)amino)tetrahydro-2H-pyran-4-carboxylic acid]	7.68	> 7.00
COc1cc(-c2ccc(NC3(C(=O)O)CCOCC3)cc2COC2CCCC2)c(C)c(OC)c1C [Compound 148, 4-((2-((cyclopentyloxy)methyl)-3′,5′-dimethoxy-2′,4′-dimethyl-[1,1′-biphenyl]-4-yl)amino)tetrahydro-2H-pyran-4-carboxylic acid]	7.98	> 7.00
COc1cc(-c2c(C)cc(NC3(C(=O)O)CCOCC3)cc2COC2CCCC2)c(C)c(OC)c1C [Compound 149]	7.06	> 7.00
COc1cc(-c2ccc(NC3(C(=O)O)CCOCC3)cc2COCC2(C#N)CC2)cc(OC)c1C [Compound 151]	5.80	< 6.00
COc1cc(-c2ccc(NC3(C(=O)O)CCOCC3)cc2COC2CCCC2)cc(OC)n1 [Compound 152, 4-((3-((cyclopentyloxy)methyl)-4-(2,6-dimethoxypyridin-4-yl)phenyl)amino)tetrahydro-2H-pyran-4-carboxylic acid]	6.41	6.00 to 7.00
COc1cc(-c2ccc(NC3(C(=O)O)CCOCC3)cc2CNC2CCCC2)cc(OC)c1C [Compound 153]	< 5.00	< 6.00
COC(=O)N1CCC(Nc2cc(C)c(-c3cc(OC)cc(OC)c3)c(COC3CCCC3)c2)(C(=O)O)CC1 [Compound 154]	6.65	6.00 to 7.00
CCOC(=O)N1CCC(Nc2cc(C)c(-c3cc(OC)cc(OC)c3)c(COC3CCCC3)c2)(C(=O)O)CC1 [Compound 155]	6.60	6.00 to 7.00

SMILES	pIC50 [1]	pIC50 [2]
COc1cc(OC)cc(-c2c(C)cc(NC3(C(=O)O)CCOCC3)cc2COC2CCCC2)c1 [Compound 156]	6.79	6.00 to 7.00
COC(=O)N1CCC(Nc2ccc(-c3cc(OC)cc(OC)c3)c(COC3CCCC3)c2)(C(=O)O)CC1 [Compound 157]	6.95	6.00 to 7.00
COC(=O)N1CCC(Nc2cc(C)c(-c3cc(C#N)cc(OC)c3)c(COC3CCCC3)c2)(C(=O)O)CC1 [Compound 161]	6.01	6.00 to 7.00
COc1cc(-c2c(C)cc(OC3(C(=O)O)CCOCC3)cc2COC2CCCC2)cc(OC)c1C [Compound 163]	6.42	6.00 to 7.00
COc1cc(O)nc(-c2c(C)cc(NC3(C(=O)O)CCOCC3)cc2COC2CCCC2)c1 [Compound 164]	< 5.00	< 6.00
COc1cc(-c2ccc(NC3(C(=O)O)CCOCC3)cc2COC2CCCC2)c(F)c(OC)c1C [Compound 165]	7.96	> 7.00
COc1cc(-c2ccc(NC3(C(=O)O)CCOCC3)cc2COC2CCCC2)c(Cl)c(OC)c1C [Compound 166]	8.03	> 7.00
COc1cc(-c2c(F)cc(NC3(C(=O)O)CCOCC3)cc2COC2CCCC2)c(F)c(OC)c1C [Compound 168]	7.56	> 7.00
COc1cc(OC)cc(-c2ccc(NC3(C(=O)O)CCOCC3)cc2CO[C@H]2CCC[C@H]2NC(C)=O)c1 [Compound 169]	< 5.00	< 6.00
COc1cc(OC)nc(-c2c(C)cc(NC3(C(=O)O)CCOCC3)cc2COC2CCCC2)c1 [Compound 170]	5.82	< 6.00
COC(=O)N1CCC(Nc2cc(C)c(-c3cc(OC)ccn3)c(COC3CCCC3)c2)(C(=O)O)CC1 [Compound 171]	< 5.00	< 6.00
COc1cccc(-c2ccc(NC3(C(=O)O)CCOCC3)cc2COC2CCCC2)c1C [Compound 172]	7.09	> 7.00
COc1ccc(C)c(-c2ccc(NC3(C(=O)O)CCOCC3)cc2COC2CCCC2)c1 [Compound 173]	6.50	6.00 to 7.00
COc1cc(OC)c(Cl)c(-c2c(F)cc(NC3(C(=O)O)CCOCC3)cc2COC2CCCC2)c1 [Compound 174]	7.53	> 7.00
COc1cc(-c2c(COC3CCCC3)cc(NC3(C(=O)O)CCOCC3)cc2OC)cc(OC)c1C [Compound 175]	6.76	6.00 to 7.00
COCC(=O)N1CCC(Nc2cc(C)c(-c3cc(OC)cc(OC)c3)c(COC3CCCC3)c2)(C(=O)O)CC1 [Compound 176]	6.05	6.00 to 7.00
COc1cc(OC)nc(-c2c(C)cc(NC3(C(=O)O)CCOCC3)cc2COC2CCCC2)n1 [Compound 178]	5.88	< 6.00
COc1cc(OC)c(C)c(-c2ccc(NC3(C(=O)O)CCOCC3)cc2COC2CCCC2)c1 [Compound 179]	7.60	> 7.00
COc1cc(OC)c(C)c(-c2c(F)cc(NC3(C(=O)O)CCOCC3)cc2COC2CCCC2)c1 [Compound 180]	7.40	> 7.00
COc1c(C)ccc(-c2ccc(NC3(C(=O)O)CCOCC3)cc2COC2CCCC2)c1C [Compound 181]	7.26	> 7.00
